Test results published in patent US20140106967A1, “AUXIN PLANT GROWTH REGULATORS” (The Governors of The University of Alberta, priority 2011, published 2014).

Test system: pea plants cv. 'Carneval'
Assay: Growth chamber experiment 2, pea 'Carneval' sprayed with 4-ME-IAA: peduncle/pedicel growth and seed yield, with or without heat stress (Tables P3-P12)
Assay type: in vivo, Pisum sativum L.
Method: For growth chamber experiment, seeds of ‘Carneval’ were planted at an approximate depth of 2.5 cm in 3-L plastic pots (4 seeds per pot and thinned to 2 plants per pot after approximately 2 weeks) in 1:1 Sunshine #4 potting mix (Sun Gro Horticulture, Vancouver, Canada) and sand. The experiment was arranged in a completely randomized design and grown at the University of Alberta in a growth chamber set at 19° C./17° C. (day/night) with a 16/8-h photoperiod under cool-white fluorescent lights (54W/835/HO high fluorescent bulbs, Phillips, Holland; 350 μE m^2 s^−2). For the heat stress treatment, plants were placed in a separate growth chamber with a 16/8-h photoperiod under cool-white fluorescent lights (F54/15/835/HO high fluorescent bulbs, Phillips, Holland) for 4 days where the temperature was cycled over a 24 hr period as follows: 33° C. air temperature for 6 hours per day (between 11:00 and 17:00 hrs) for 4 days during the light cycle; the remainder of the light cycle was maintained at a 22° C. air temperature; the dark cycle was maintained at 19° C. After the 4 day heat treatment, the plants were returned to the same growth chamber they were originally grown in, where they were taken to maturity.
For experiment 2, aqueous 4-methyl-indole-3-acetic acid (4-ME-IAA) solutions at 1×10^−7, 1×10^−6, 1×10^−5, or 1×10^−4 M in 0.1% (v/v) Tween 80 or aqueous 0.1% (v/v) Tween 80 (control) were applied as a spray to the entire plant to cover when the first flowering node of the main stem was near or at anthesis. In addition to the application at the timing cited above, one application of 4-ME-IAA at 1×10^−6 M or 1×10^−5 M was made when the floral buds were tightly clustered inside the stipule leaves at the stem apex (floral buds not visible outside of stipule leaves; designated the ‘Early’ treatment). In the heat stress treatment, the hormone or control treatment application was completed 16 hrs prior to the initiation of the first heat-stress cycle. The length and diameter (measured mid-length) of the lower and upper peduncles and pedicels of the inflorescence with two pods (or the lower peduncle and pedicel if a single pod node) at the first, second, third and fourth flowering nodes of the main stem of pea plants were determined for hormone-treated and control plants. Standard error of the mean (SE) was calculated for the means of all data for a measure of statistical significance in comparing treatment means.

[1] = 1×10^−6 M, first flowering node, heat stress (33° C. 6 h/day, 4 days)
[2] = 1×10^−6 M, first flowering node, no heat stress
[3] = 1×10^−6 M, fourth flowering node, heat stress (33° C. 6 h/day, 4 days)
[4] = 1×10^−6 M, fourth flowering node, no heat stress
[5] = 1×10^−6 M, heat stress (33° C. 6 h/day, 4 days)
[6] = 1×10^−6 M, second flowering node, heat stress (33° C. 6 h/day, 4 days)
[7] = 1×10^−6 M, second flowering node, no heat stress
[8] = 1×10^−6 M, third flowering node, heat stress (33° C. 6 h/day, 4 days)
[9] = 1×10^−6 M, third flowering node, no heat stress
[10] = 1×10^−7 M, applied near or at anthesis, no heat stress
[11] = 1×10^−7 M, first flowering node, heat stress (33° C. 6 h/day, 4 days)
[12] = 1×10^−7 M, first flowering node, no heat stress
[13] = 1×10^−7 M, fourth flowering node, heat stress (33° C. 6 h/day, 4 days)
[14] = 1×10^−7 M, fourth flowering node, no heat stress
[15] = 1×10^−7 M, heat stress (33° C. 6 h/day, 4 days)
[16] = 1×10^−7 M, second flowering node, heat stress (33° C. 6 h/day, 4 days)
[17] = 1×10^−7 M, second flowering node, no heat stress
[18] = 1×10^−7 M, third flowering node, heat stress (33° C. 6 h/day, 4 days)
[19] = 1×10^−7 M, third flowering node, no heat stress
[20] = Early treatment (tight floral bud stage) 1×10^−5 M, no heat stress
[21] = Early treatment (tight floral bud stage) 1×10^−6 M, no heat stress

Cc1cccc2[nH]cc(CC(=O)O)c12 [4-ME-IAA, 4-methyl-indole-3-acetic acid]
Lower Peduncle diameter [1]: 1.38 ± 0.08 mm
Upper Pedicel Length [1]: 8.29 ± 0.18 mm
Upper Pedicel diameter [1]: 1.43 ± 0.06 mm
Upper Peduncle Length [1]: 16.71 ± 1.55 mm
Upper Peduncle diameter [1]: 1.19 ± 0.07 mm
Lower Pedicel Length [2]: 9.40 ± 0.27 mm
Lower Pedicel diameter [2]: 1.70 ± 0.04 mm
Lower Peduncle Length [2]: 75.00 ± 4.00 mm
Lower Peduncle diameter [2]: 1.65 ± 0.03 mm
Upper Pedicel Length [2]: 9.40 ± 0.27 mm
Upper Pedicel diameter [2]: 1.54 ± 0.04 mm
Upper Peduncle Length [2]: 20.30 ± 1.54 mm
Upper Peduncle diameter [2]: 1.37 ± 0.05 mm
Lower Pedicel Length [3]: 7.40 ± 0.24 mm
Lower Pedicel diameter [3]: 1.49 ± 0.11 mm
Lower Peduncle Length [3]: 26.80 ± 4.55 mm
Lower Peduncle diameter [3]: 1.25 ± 0.06 mm
Upper Pedicel Length [3]: 8.00 mm
Upper Pedicel diameter [3]: 1.46 mm
Upper Peduncle Length [3]: 15.00 mm
Upper Peduncle diameter [3]: 1.33 mm
Lower Pedicel Length [4]: 8.80 ± 0.25 mm
Lower Pedicel diameter [4]: 1.34 ± 0.03 mm
Lower Peduncle Length [4]: 38.00 ± 3.63 mm
Lower Peduncle diameter [4]: 1.38 ± 0.05 mm
Upper Pedicel Length [4]: 8.33 ± 0.29 mm
Upper Pedicel diameter [4]: 1.24 ± 0.05 mm
Upper Peduncle Length [4]: 16.67 ± 0.69 mm
Upper Peduncle diameter [4]: 1.16 ± 0.03 mm
Ratio of seed number on main stem to lateral stems [5]: 2.0 ± 0.5
Seed number plant [5]: 46.8 ± 3.3
Seed weight per per plant [5]: 12.9 ± 0.9 g
Weight per seed [5]: 0.277 ± 0.005 g
Lower Pedicel Length [6]: 8.80 ± 0.36 mm
Lower Pedicel diameter [6]: 1.47 ± 0.05 mm
Lower Peduncle Length [6]: 47.10 ± 3.42 mm
Lower Peduncle diameter [6]: 1.28 ± 0.06 mm
Upper Pedicel Length [6]: 8.14 ± 0.14 mm
Upper Pedicel diameter [6]: 1.43 ± 0.04 mm
Upper Peduncle Length [6]: 16.86 ± 1.01 mm
Upper Peduncle diameter [6]: 1.20 ± 0.07 mm
Lower Pedicel Length [7]: 9.4 ± 0.27 mm
Lower Pedicel diameter [7]: 1.51 ± 0.04 mm
Lower Peduncle Length [7]: 58.20 ± 5.41 mm
Lower Peduncle diameter [7]: 1.51 ± 0.04 mm
Upper Pedicel Length [7]: 9.20 ± 0.33 mm
Upper Pedicel diameter [7]: 1.47 ± 0.04 mm
Upper Peduncle Length [7]: 19.00 ± 0.60 mm
Upper Peduncle diameter [7]: 1.26 ± 0.02 mm
Lower Pedicel Length [8]: 7.90 ± 0.28 mm
Lower Pedicel diameter [8]: 1.43 ± 0.05 mm
Lower Peduncle Length [8]: 34.50 ± 2.73 mm
Lower Peduncle diameter [8]: 1.33 ± 0.05 mm
Upper Pedicel Length [8]: 8.60 ± 0.24 mm
Upper Pedicel diameter [8]: 1.34 ± 0.04 mm
Upper Peduncle Length [8]: 15.80 ± 1.11 mm
Upper Peduncle diameter [8]: 1.17 ± 0.03 mm
Lower Pedicel Length [9]: 9.00 ± 0.30 mm
Lower Pedicel diameter [9]: 1.39 ± 0.04 mm
Lower Peduncle Length [9]: 45.90 ± 4.3 mm
Lower Peduncle diameter [9]: 1.49 ± 0.04 mm
Upper Pedicel Length [9]: 9.00 ± 0.29 mm
Upper Pedicel diameter [9]: 1.31 ± 0.04 mm
Upper Peduncle Length [9]: 18.00 ± 0.96 mm
Upper Peduncle diameter [9]: 1.17 ± 0.02 mm
Ratio of seed number on main stem to lateral stems [10]: 3.0 ± 0.4
Seed number per plant [10]: 63.5 ± 6.8
Seed weight per plant [10]: 15.5 ± 1.6 g
Weight per seed [10]: 0.245 ± 0.004 g
increase in seed yield (seed weight per plant) vs control [10]: 78%
Lower Pedicel Length [11]: 9.40 ± 0.34 mm
Lower Pedicel diameter [11]: 1.73 ± 0.04 mm
Lower Peduncle Length [11]: 68.40 ± 5.39 mm
Lower Peduncle diameter [11]: 1.72 ± 0.05 mm
Upper Pedicel Length [11]: 9.00 ± 0.37 mm
Upper Pedicel diameter [11]: 1.67 ± 0.06 mm
Upper Peduncle Length [11]: 18.11 ± 0.59 mm
Upper Peduncle diameter [11]: 1.45 ± 0.08 mm
Lower Pedicel Length [12]: 9.30 ± 0.26 mm
Lower Pedicel diameter [12]: 1.65 ± 0.04 mm
Lower Peduncle Length [12]: 67.10 ± 5.30 mm
Lower Peduncle diameter [12]: 1.59 ± 0.04 mm
Upper Pedicel Length [12]: 9.20 ± 0.20 mm
Upper Pedicel diameter [12]: 1.52 ± 0.03 mm
Upper Peduncle Length [12]: 19.80 ± 1.08 mm
Upper Peduncle diameter [12]: 1.27 ± 0.05 mm
Lower Pedicel Length [13]: 7.50 ± 0.56 mm
Lower Pedicel diameter [13]: 1.49 ± 0.05 mm
Lower Peduncle Length [13]: 38.67 ± 3.18 mm
Lower Peduncle diameter [13]: 1.58 ± 0.06 mm
Upper Pedicel Length [13]: 8.00 ± 0.58 mm
Upper Pedicel diameter [13]: 1.39 ± 0.15 mm
Upper Peduncle Length [13]: 17.00 ± 1.00 mm
Upper Peduncle diameter [13]: 1.30 ± 0.06 mm
Lower Pedicel Length [14]: 9.57 ± 0.37 mm
Lower Pedicel diameter [14]: 1.37 ± 0.03 mm
Lower Peduncle Length [14]: 44.00 ± 3.22 mm
Lower Peduncle diameter [14]: 1.37 ± 0.03 mm
Upper Pedicel Length [14]: 8.86 ± 0.55 mm
Upper Pedicel diameter [14]: 1.25 ± 0.04 mm
Upper Peduncle Length [14]: 18.57 ± 0.61 mm
Upper Peduncle diameter [14]: 1.12 ± 0.03 mm
Ratio of seed number on main stem to lateral stems [15]: 1.2 ± 0.2
Seed number plant [15]: 55.9 ± 5.9
Seed weight per per plant [15]: 15.3 ± 1.7 g
Weight per seed [15]: 0.273 ± 0.010 g
increase in seed number per plant over control (1×10^−7 M, mild heat stress): 30%
increase in seed weight per plant over control (1×10^−7 M, mild heat stress): 29%
Lower Pedicel Length [16]: 8.78 ± 0.28 mm
Lower Pedicel diameter [16]: 1.69 ± 0.06 mm
Lower Peduncle Length [16]: 62.00 ± 2.88 mm
Lower Peduncle diameter [16]: 1.69 ± 0.05 mm
Upper Pedicel Length [16]: 8.50 ± 0.22 mm
Upper Pedicel diameter [16]: 1.55 ± 0.07 mm
Upper Peduncle Length [16]: 17.00 ± 0.73 mm
Upper Peduncle diameter [16]: 1.41 ± 0.05 mm
Lower Pedicel Length [17]: 9.3 ± 0.30 mm
Lower Pedicel diameter [17]: 1.57 ± 0.05 mm
Lower Peduncle Length [17]: 55.80 ± 4.61 mm
Lower Peduncle diameter [17]: 1.57 ± 0.03 mm
Upper Pedicel Length [17]: 9.20 ± 0.29 mm
Upper Pedicel diameter [17]: 1.48 ± 0.04 mm
Upper Peduncle Length [17]: 19.00 ± 0.76 mm
Upper Peduncle diameter [17]: 1.25 ± 0.02 mm
Lower Pedicel Length [18]: 8.13 ± 0.40 mm
Lower Pedicel diameter [18]: 1.70 ± 0.06 mm
Lower Peduncle Length [18]: 46.13 ± 2.75 mm
Lower Peduncle diameter [18]: 1.61 ± 0.06 mm
Upper Pedicel Length [18]: 8.20 ± 0.37 mm
Upper Pedicel diameter [18]: 1.46 ± 0.11 mm
Upper Peduncle Length [18]: 18.60 ± 0.98 mm
Upper Peduncle diameter [18]: 1.31 ± 0.07 mm
Lower Pedicel Length [19]: 9.44 ± 0.18 mm
Lower Pedicel diameter [19]: 1.46 ± 0.04 mm
Lower Peduncle Length [19]: 48.44 ± 2.5 mm
Lower Peduncle diameter [19]: 1.42 ± 0.05 mm
Upper Pedicel Length [19]: 9.00 ± 0.33 mm
Upper Pedicel diameter [19]: 1.26 ± 0.05 mm
Upper Peduncle Length [19]: 18.38 ± 1.10 mm
Upper Peduncle diameter [19]: 1.07 ± 0.03 mm
number of inflorescences with two pods at the fourth flowering node (1×10^−7 to 1×10^−4 M, no heat stress, control 10%): 70-90 % of the plants
number of inflorescences with 2 pods at the third flowering node (1×10^−7 to 1×10^−4 M, no heat stress, control 20%): 80-100 % of the plants
increase in seed yield vs control ('Early' treatment 1×10^−6 M): 109%
Ratio of seed number on main stem to lateral stems [20]: 1.5 ± 0.2
Seed number per plant [20]: 64.8 ± 5.2
Seed weight per plant [20]: 16.2 ± 1.3 g
Weight per seed [20]: 0.252 ± 0.006 g
Ratio of seed number on main stem to lateral stems [21]: 1.6 ± 0.1
Seed number per plant [21]: 73.8 ± 5.9
Seed weight per plant [21]: 18.2 ± 1.4 g
Weight per seed [21]: 0.248 ± 0.006 g
